US20120309728A1, “NEW STEROID INHIBITORS OF PGP FOR USE FOR INHIBITING MULTIDRUG RESISTANCE” (priority 2009, published 2012)
Read-outs that look alike come from different tables or passages of the source.

Experiments:
[1] = tested on: H295R cells xenograft; assay: In vivo efficiency in SCID mice xenografted with H295R cells
Description: (§1) FIGS. 7 and 8 represent the tumour volume of mice treated with vehicle ([…]), doxorubicin (∘), compound (33) alone (▾), and compound (33) with doxorubicin (Δ). The tumor volume is indicated as a function of days. FIG. 7 concerns mice xenografted with H295R cells and FIG. 8 concerns mice xenografted with R7 cells (the arrow indicates the beginning of treatment of mice).
(§2) For each xenograft, four groups of five mice developing a tumour in both flanks were employed. Group 1 received vehicle alone, group 2 received DOXO (1.5 mg/kg/mouse+vehicle), group 3 received (33) derivative (10 mg/kg/mouse solubilised with vehicle) and group 4 received DOXO+derivative.

[2] = tested on: H295R cells; assay: Cytotoxicity assay using [^3H]thymidine incorporation in surviving cells, with doxorubicin plus steroid modulator; assay type: cell-based, human; conditions: comment on Table 2, both value columns
Method: Doxorubicine (DOXO) at 10^−6 M was added shortly thereafter to each well. […] Finally the precipitate was solubilized by addition of 300 μL of a solution of sodium deoxycholate (4% in NaOH 0.5 M) (O. Joly-Pharaboz et al., J Steroid Biochem. Mol. Biol. 73 (2000) 237-249). Radioactivity was measured (Tri-Carb 1900 CA, Packard) after addition of liquid scintillation cocktail (Perkin Elmer, Courtaboeuf, France). […] At least three different experiments were performed for each cell type.

[3] = tested on: K562/R7 cells; assay: Cytotoxicity assay using MTT reagent, with doxorubicin plus steroid modulator; assay type: cell-based, human; conditions: for Surviving cells R7 cells (% untreated cells): doxorubicin 10^−6M + steroid modulator 10^−6M, 72 h; for activity compared with cyclosporine A (in words): comment on Table 2 bis, R7 cells
Method: Doxorubicin at 10^−6 M was then added to each well. After incubation for 72 h, 20 μL of MTT reagent (5 mg/mL in PBS buffer) were added to each well and the plate was further incubated for 4 h at 37° C., allowing viable cells to change the yellow MTT into dark-blue formazan crystals. Supernatants were carefully discarded and 100 μL of isopropanol containing 10% HCL 1M were added to dissolve the formazan crystals. Absorbance in each well was determined at 570 nm using a microplate reader (MultisKan EX, Thermo Electron). […] At least three different experiments were performed. Results were expressed as the percentage of surviving cells in each well compared to untreated cells.

[4] = tested on: R7 cells xenograft; assay: In vivo efficiency in SCID mice xenografted with R7 cells
Description: as §1, §2

[5] = tested on: resistant R7 cells; assay: Reversion of chemoresistance to doxorubicin by steroid modulators (modulation of IC50 for doxorubicin); assay type: cell-based, human; conditions: in vitro, cyclosporine A in the same conditions
Method: FIGS. 3 and 4 represent the effects of compounds of the invention (steroid modulators) on chemosensitization of resistant R7 cells to doxorubicin (DOXO), evaluated by [^3H]thymidine incorporation. Resistant R7 cells were incubated for 24 hours with increasing concentrations of doxorubicinin the absence (∘) or in the presence of said steroid modulators. As a control, the sensitive K562 cells were incubated with the same concentrations of doxorubicin ([…]).
Sensitive parental K562 cells were also treated with the same increasing concentrations of DOXO (from 10^−8 to 10^−4 M) in the absence of steroids, as a control.

[6] = tested on: R7 cells; assay: Intracellular accumulation of daunorubicin measured by flow cytometry; assay type: cell-based, human; conditions: daunorubicin 10 μM, compound 10 μM, 1 h at 37° C.
Method: The accumulation of daunorubicin in the presence of steroid modulators according to the invention, i.e. compounds having formula (I), was measured by flow cytometry using a reported procedure (G. Comte et al, J. Med. Chem., 44: 763-768, 2001). K562 or R7 cells ([…]) were incubated for 1 h at 37° C. with 1 mL RPMI 1640 medium containing daunorubicin at 10 μM, in the presence or absence of compounds of the invention (10 μM). The cells were then washed twice with ice-cold PBS and kept on ice until analysis by flow cytometry on a FACS-II (Becton-Dickinson Corp., Mountain View, Calif.). Assays were performed in duplicate, in at least three separate experiments.

[7] = tested on: K562/R7 cells; assay: Determination of IC50 for cytotoxics ([^3H]thymidine incorporation)
Method: (§3) After treatment, the number of surviving cells was evaluated by the incorporation of [^3H]thymidine as described above.

[8] = tested on: H295R cells; assay: cells
Method: as §3

[9] = DOXO 1.5 mg/kg/mouse + derivative 10 mg/kg/mouse (group 4) versus groups 1, 2 and 3
[10] = DOXO + derivative (group 4), 40 days of treatment

CC(=O)C1CCC2C3C([C@H](OC4CCCCO4)C[C@]12C)[C@@]1(C)CCC(=O)C[C@H]1C[C@H]3OC(=O)c1ccccc1 (stereo partly drawn) [Compound 33, 7α-Benzoyloxy-11α-O-[2′(R)]tetrahydropyranyl-oxy(5β)pregnane-3,20-dione]
development of tumour [1, 9]: delay in the development of tumour | survival time ([1]; DOXO + derivative (group 4)): longer survival time | tumour volume [1, 10]: remains low and stable | activity to increase the cytotoxicity of doxorubicin (in words) [2]: activity similar to cyclosporine A | Surviving cells R7 cells (% untreated cells) [3]: 1.5 ± 0.9 % untreated cells | development of tumour [4, 9]: delay in the development of tumour | survival time ([4]; DOXO + derivative (group 4)): longer survival time | tumour volume [4, 10]: remains low and stable | potency relative to cyclosporine A in decreasing IC50 for doxorubicin [5]: 10 fold

CC(=O)[C@@]1(OC2CCCCO2)CCC2C3CC[C@@H]4CC(=O)CC[C@]4(C)C3[C@H](OC3CCCCO3)C[C@@]21C (stereo partly drawn) [Compound 51, 11α,17α-Bis-O-[2′(S),2′(R)]tetrahydropyranyloxy(5β)pregnane-3,20-dione]
Daunorubicin accumulation [6]: 68.02 ± 15.6 % of the accumulation measured in the presence of cyclosporine A | potency relative to cyclosporine A in decreasing IC50 for doxorubicin [5]: 10 fold

COC(=O)CC[C@@H](C)[C@H]1CC[C@H]2[C@@H]3[C@H](O[C@H]4CCCCO4)CC4CC(=O)CC[C@]4(C)[C@H]3C[C@H](OC(=O)c3ccccc3)[C@]12C (stereo partly drawn) [Compound 63, methyl 3-oxo-12α-benzoyloxy-7α-O-[2′(S)]tetrahydro-pyranyloxycholanate]
activity compared with cyclosporine A (in words) [3]: activity higher than that of the reference compound cyclosporine A | Surviving cells R7 cells (% untreated cells) [3]: 0.7 ± 0.06 % untreated cells | Daunorubicin accumulation [6]: 104.7 ± 7.0 % of the accumulation measured in the presence of cyclosporine A

COC(=O)CC[C@@H](C)[C@H]1CC[C@H]2[C@@H]3[C@H](O[C@@H]4CCCCO4)CC4CC(=O)CC[C@]4(C)[C@H]3C[C@H](OC(=O)c3ccccc3)[C@]12C (stereo partly drawn) [Compound 64, methyl 3-oxo-12α-benzoyloxy-7α-O-[2′(R)]tetra-hydropyranyloxycholanate]
activity compared with cyclosporine A (in words) [3]: activity higher than that of the reference compound cyclosporine A | Surviving cells R7 cells (% untreated cells) [3]: 0.8 ± 0.06 % untreated cells | Daunorubicin accumulation [6]: 10.0 ± 1.5 % of the accumulation measured in the presence of cyclosporine A

CC(=O)[C@H]1CC[C@H]2[C@H]3[C@H]([C@H](O)C[C@]12C)[C@@]1(C)CCC(=O)C[C@H]1C[C@H]3OC1CCCCO1 (stereo partly drawn) [Compound 204, 7α-O-[2′(R+S)]Tetrahydropyranyloxy-11α-hydroxy(5β)pregnane-3,20-dione]
Surviving cells R7 cells (% untreated cells) [3]: 2.8 ± 0.7 % untreated cells | Daunorubicin accumulation [6]: 87.4 ± 3.5 % of the accumulation measured in the presence of cyclosporine A

COC(=O)CC[C@@H](C)C1CCC2C3C[C@H](OC4CCCCO4)[C@@H]4CC(=O)CCC4(C)C3CCC21C (stereo partly drawn) [Compound 210, Methyl 3-oxo-6α-O-[2′(R+S)]tetrahydropyranyloxycholanate]
Surviving cells R7 cells (% untreated cells) [3]: 4.1 ± 1.1 % untreated cells | Daunorubicin accumulation [6]: 66.7 ± 1.8 % of the accumulation measured in the presence of cyclosporine A

COc1cc2c(c(OC)c1OC)-c1ccc(OC)c(=O)cc1[C@@H](NC(C)=O)CC2 [colchicine]
resistance of the cells to the cytotoxic drug (in words) ([7]; R7 cells, 24 h treatment): resistant

COc1cccc2c1C(=O)c1c(O)c3c(c(O)c1C2=O)C[C@@](O)(C(=O)CO)C[C@@H]3O[C@H]1C[C@H](N)[C@H](O)[C@H](C)O1 [doxorubicin]
IC50 ([7]; Homo sapiens, K562/R7, 24 h, read-out: IC50 of cytotoxic drug (concentration inhibiting cell growth by 50%)): 63.6 µM | IC50 ([8]; Homo sapiens, NCI-H295R, 24 h, read-out: IC50 of cytotoxic drug (concentration inhibiting cell growth by 50%)): 20.6 µM

O=C1c2c(O)ccc(O)c2C(=O)c2c(NCCNCCO)ccc(NCCNCCO)c21 [mitoxantrone]
resistance of the cells to the cytotoxic drug (in words) [7]: resistant | resistance of the cells to the cytotoxic drug (in words) [8]: resistant

CC[C@]1(O)C[C@@H]2CN(CCc3c([nH]c4ccccc34)[C@@](C(=O)OC)(c3cc4c(cc3OC)N(C)[C@H]3[C@@](O)(C(=O)OC)[C@H](OC(C)=O)[C@]5(CC)C=CCN6CC[C@]43[C@@H]65)C2)C1 [vinblastine]
resistance of the cells to the cytotoxic drug (in words) [7]: resistant

CCC1=C[C@@H]2CN(C1)Cc1c([nH]c3ccccc13)[C@@](C(=O)OC)(c1cc3c(cc1OC)N(C)[C@H]1[C@@](O)(C(=O)OC)[C@H](OC(C)=O)[C@]4(CC)C=CCN5CC[C@]31[C@@H]54)C2 [vinorelbine]
resistance of the cells to the cytotoxic drug (in words) [8]: resistant
